# Assay results: publication PMC11714206, “Massively Parallel Screening of Toll/Interleukin‐1 Receptor (TIR)‐Derived Peptides Reveals Multiple Toll‐Like Receptors (TLRs)‐Targeting Immunomodulatory Peptides” (Advanced Science, 2024)
# Target: T1, MAL^TIR (Homo sapiens, UniProt P58753)
# T1 construct: MAL (residues 79–221); 6xHis; made in house; host or cells: E. coli BL21 (DE3)
# Experiment: T‐Surf phage library (P8 and P3) selection against MAL^TIR, four rounds, NGS read counts
# Type: binding
# Conditions: for Population: 4th round of selection against MAL TIR, share of NGS reads; for P3_MAL Rank (after) / P3_MAL Rank (before): P3 library; for P8_MAL Rank (after) / P8_MAL Rank (before): P8 library
# Experimental: T‐Surf libraries were screened against the immobilized TIR domains of two major human TLR adaptor proteins, MAL^TIR and MyD88^TIR, allowing cross‐species selection of TIR‐binding motifs with 190 946 TIR‐derived peptides in a single binding assay (Scheme 1). Enriched phage pools from the fourth round of selection were analyzed using NGS after barcoding the peptide‐coding regions of the phage pools.
# Phage display screening was performed by coating two wells of a 96‐well plate (Maxisorp, Thermo Fisher Scientific) with 100 µL of 5 µg mL^−1 TIR domains overnight; then, the coated wells were blocked with 200 µL of blocking buffer (0.2% BSA in PBS) and set aside for 1 h at 4 °C with gentle shaking. Next, 100 µL of the phage library was added to the wells and incubated for 1 h at room temperature (RT; 20 – 22 °C) with gentle shaking. The plate was washed four times with PBS containing 0.5% Tween‐20; the bound phages were eluted by adding 100 µL of 100 mM HCl to each well. The elute was neutralized with 10 µL of 1.0 M Tris‐HCl (pH 11.0). E. coli TG1 cells were grown to the log phase (A600 = ≈0.6), and 1 mL of the culture was incubated with 100 µL of the eluted phages for 30 min at 37 °C, with shaking at 200 rpm. Next, 1 µL of M13KO7 helper phages was added, followed by incubation for 45 min at 37 °C, with shaking. Subsequently, the cells were transferred to 25 mL of 2× yeast extract tryptone/carbenicillin/kanamycin medium and incubated overnight at 37 °C with shaking at 200 rpm. The amplified phages were precipitated with 20% PEG‐8000/2.5 M NaCl to be used for the next round of selection.
# The naïve T‐Surf libraries in P8 and P3 and the enriched phage pools after four rounds were barcoded for NGS as previously described.^[ [59] ^] Briefly, 5 µL of the phage pool was used as a template for 20 cycles of a 50 µL PCR reaction using […] each of forward and reverse barcoded primers and PrimeSTAR Max DNA Polymerase. The PCR products were purified using Expin Gel SV (GeneAll). The NGS samples were quantified using qPCR, following the qPCR Quantification Protocol Guide (KAPA Library Quantification kits for Illumina Sequencing Platform), and qualified using the TapeStation High Sensitivity D1000 ScreenTape (Agilent Technologies). The indexed libraries were further sequenced by Macrogen (Seoul, Republic of Korea) using the NovaSeq platform (Illumina) with 100 bp paired‐end reads. The reads were demultiplexed by barcodes and filtered for an average Phred quality score of at least 30, followed by trimming the flanking consensus sequences using Cutadapt (version 2.3). Peptide sequence populations were analyzed according to the read counts.
# [1] = P3_MAL pool: P3 T-Surf phage library
# [2] = P3_MAL: rank by count after grouping
# [3] = P3_MAL: rank by count before grouping
# [4] = selection against MAL, rank after grouping
# [5] = selection against MAL, rank before grouping
# [6] = P8_MAL: rank by count after grouping
# [7] = P8_MAL: rank by count before grouping
# [8] = selection against MAL TIR, rank by count after grouping
# [9] = selection against MAL TIR, rank by count before grouping
# [10] = P8_MAL pool: P8 T-Surf phage library
# [11] = selection against MAL, rank by count after grouping
# [12] = selection against MAL, rank by count before grouping
# [13] = 4R selection against MAL, rank after grouping
# [14] = 4R selection against MAL, rank before grouping
# T1 sequence (P58753 79-221): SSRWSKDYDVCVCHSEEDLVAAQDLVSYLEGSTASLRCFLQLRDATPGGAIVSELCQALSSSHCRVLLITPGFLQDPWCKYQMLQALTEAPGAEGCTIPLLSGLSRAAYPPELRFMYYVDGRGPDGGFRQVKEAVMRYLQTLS
sequence,measurement,setting,value
YAFTGHLHSYLVQRGV,Population,[1],0.00338%
RGFREGLWRLLELSKK,Population,[1],0.00902%
same,Rank (after),[2],103
same,Rank (before),[3],111
SSFREGLGLLLELGKK,P3_MAL Rank (after),[4],535
same,P3_MAL Rank (before),[5],3175
PNLRTKVLSYLMRTKT,Population,[1],0.00376%
AFLYTFLLNLTHPTHF,Rank (after),[6],162
same,Rank (before),[7],1829
DLFLSKLSQHILKREK,Population,[1],0.00376%
LQNHCKLALTKVANLV,P3_MAL Rank (after),[8],230
same,P3_MAL Rank (before),[9],2137
AFFWAQLKSVLGNPTL,Population,[10],0.00309%
SLCKNLVTNLIEEFNR,Rank (after),[2],456
same,Rank (before),[3],3062
VRHTFAGYLCVALNRL,Rank (after),[2],431
same,Rank (before),[3],1700
PNLGTKTLNYLTRTKT,P3_MAL Rank (after),[11],730
same,P3_MAL Rank (before),[12],2666
VGWFLHTLCQLILQKG,P3_MAL Rank (after),[13],632
same,P3_MAL Rank (before),[14],1630
YAFTGHLHHIWCSVA,P3_MAL Rank (after),[11],686
same,P3_MAL Rank (before),[12],1430
TFPGHLYNALVQAGIL,Rank (after),[6],180
same,Rank (before),[7],2633
LFFWESLKQLLRTVLGKPTM,P8_MAL Rank (after),[13],669
same,P8_MAL Rank (before),[14],2109
AFYWAQLKIVLGNPTM,P8_MAL Rank (after),[11],686
same,P8_MAL Rank (before),[12],1786
SAFVAPLSEALNQRAL,P3_MAL Rank (after),[13],675
same,P3_MAL Rank (before),[14],2980
LFFWESLKQPLRSEGR,P8_MAL Rank (after),[13],608
same,P8_MAL Rank (before),[14],2112
RNFVAHLFQALANKAI,P8_MAL Rank (after),[13],667
same,P8_MAL Rank (before),[14],2233
LKEESWRQAQEKAGKL,P3_MAL Rank (after),[11],744
same,P3_MAL Rank (before),[12],2310
TFLGHLHNALVQAGNH,Rank (after),[6],432
same,Rank (before),[7],2608
AFLWAYLNSVTHPPTF,Rank (after),[6],471
same,Rank (before),[7],1796
LNVESWRQALEKAGKL,Population,[1],0.00338%
YNLISQLYEALHLNRI,P3_MAL Rank (after),[13],645
same,P3_MAL Rank (before),[14],1587
WFFERLVRPILRGTQG,P8_MAL Rank (after),[4],559
same,P8_MAL Rank (before),[5],1113
WFYERLVSLLLRDTKV,Population,[10],0.00309%
PLLYTFLINLTHPTNF,Rank (after),[6],104
same,Rank (before),[7],2327
NQWRNALTAAANLRGR,Rank (after),[2],145
same,Rank (before),[3],3369
YAFTGPPHRYMVQRGV,Rank (after),[2],460
same,Rank (before),[3],1354
YAFTGHRHRYLVKRGV,Rank (after),[2],179
same,Rank (before),[3],1445
AFLWTQLKNVLGNPTF,Rank (after),[6],408
same,Rank (before),[7],1766
YLNSGYPWRYDRLRFA,P3_MAL Rank (after),[11],750
same,P3_MAL Rank (before),[12],1498
RNFVAYLFQALADKGV,P8_MAL Rank (after),[8],273
same,P8_MAL Rank (before),[9],2198
WFYERLVSLILRIPK,Rank (after),[6],188
same,Rank (before),[7],742
SLLKYKEALPQFHSWL,P3_MAL Rank (after),[13],586
same,P3_MAL Rank (before),[14],2982
HFYWILLKSILGETRL,P8_MAL Rank (after),[13],618
same,P8_MAL Rank (before),[14],2426
AFLYTFLFNLTHQTNS,P8_MAL Rank (after),[13],590
same,P8_MAL Rank (before),[14],1883
FLSHLHRYLVQRGV,P3_MAL Rank (after),[13],601
same,P3_MAL Rank (before),[14],1134
AFLYSLLFNRTHPNYF,P8_MAL Rank (after),[11],702
same,P8_MAL Rank (before),[12],1809
ALPYTFLINLTHPTTF,P8_MAL Rank (after),[4],503
same,P8_MAL Rank (before),[5],1961
WFYERLVCLILRDIKV,Rank (after),[6],465
same,Rank (before),[7],1171
ESILNQLRRSSHSISN,P3_MAL Rank (after),[4],542
same,P3_MAL Rank (before),[5],2054
RGFLNHLHHHLQPNDH,P3_MAL Rank (after),[11],703
same,P3_MAL Rank (before),[12],2351
RGFLSHLSNLLQAKDH,P3_MAL Rank (after),[8],205
same,P3_MAL Rank (before),[9],2392
LFFWEILKQLLRSAGR,Rank (after),[6],454
same,Rank (before),[7],2074
NQWRNALTAPANLSGR,P3_MAL Rank (after),[8],228
same,P3_MAL Rank (before),[9],3389
KLLWVKFKFFLPSLSR,P8_MAL Rank (after),[8],211
same,P8_MAL Rank (before),[9],2730
WFYELLVSLLLRDTKV,P8_MAL Rank (after),[8],221
same,P8_MAL Rank (before),[9],1149
TFLGHLYNSLVQAGTH,P8_MAL Rank (after),[13],633
same,P8_MAL Rank (before),[14],2563
AFFCEQLRTVIGKPTI,Rank (after),[6],414
same,Rank (before),[7],1587
SSFREGLLRLLELRKK,P3_MAL Rank (after),[8],265
same,P3_MAL Rank (before),[9],3138
RNFVAYLFQALAKPA,Rank (after),[6],164
same,Rank (before),[7],2209
SSFRERLWRLLELRKK,Rank (after),[2],128
same,Rank (before),[3],3190
AFLYTFLINLTHPTNL,Population,[10],0.00371%
WFYERLGSLMLRDTNV,P8_MAL Rank (after),[4],555
same,P8_MAL Rank (before),[5],1247
AFLYTFLGHLYNALVQAGIH,P8_MAL Rank (after),[4],497
same,P8_MAL Rank (before),[5],1828
YFLHFLLFRRPENAYM,P8_MAL Rank (after),[8],268
same,P8_MAL Rank (before),[9],1461
HFFWFKLKSILGETSF,P8_MAL Rank (after),[4],542
same,P8_MAL Rank (before),[5],2394
SLLYDHLRCWAFVRF,P8_MAL Rank (after),[4],501
same,P8_MAL Rank (before),[5],2512
WFYERFVSQIPRDTNL,P8_MAL Rank (after),[4],550
same,P8_MAL Rank (before),[5],1151
RNFVAYLFRALANKGI,Population,[10],0.00371%
YAFTDHLHRYLVQRGV,Population,[1],0.00451%
RNNFIGHLYQAPNQSV,P8_MAL Rank (after),[11],699
same,P8_MAL Rank (before),[12],2283
YQWRNALTAAANLSGW,Population,[1],0.00676%
YFLQVRLFNLLESDDR,P8_MAL Rank (after),[13],600
same,P8_MAL Rank (before),[14],1514
KEVEGWRDALSSIASRP,Rank (after),[2],163
same,Rank (before),[3],685
YAFTGHLHCYLVQRGI,P3_MAL Rank (after),[8],194
same,P3_MAL Rank (before),[9],1375
AFFWAQLKNVLGSPTI,P8_MAL Rank (after),[11],718
same,P8_MAL Rank (before),[12],1642
YAFTAICIVIWCSVA,Rank (after),[2],133
same,Rank (before),[3],726
HQALWALMWAKHQTPI,P3_MAL Rank (after),[13],623
same,P3_MAL Rank (before),[14],2894
LFFWEKLRQLLRRAAS,Rank (after),[6],387
same,Rank (before),[7],2124
HQAFWDRLWAKLKAPI,P8_MAL Rank (after),[4],546
same,P8_MAL Rank (before),[5],2337
RAFVAHPQELIQKKQQ,P3_MAL Rank (after),[11],739
same,P3_MAL Rank (before),[12],2454
NAFTGHLHRYLVQRGV,Population,[1],0.00488%
YAFTDHLHRYLVQRSE,P3_MAL Rank (after),[4],555
same,P3_MAL Rank (before),[5],1462
RLMKWKEALHPFHSWV,Rank (after),[2],180
same,Rank (before),[3],2553
FMSHLYQGLLKGLIIT,P3_MAL Rank (after),[11],681
same,P3_MAL Rank (before),[12],1202
WFYERLVSLILPVTKV,P8_MAL Rank (after),[8],229
same,P8_MAL Rank (before),[9],1264
RKFEAYLFQALANKGI,P8_MAL Rank (after),[8],208
same,P8_MAL Rank (before),[9],2257
RNYVAYLFQALASKGI,Rank (after),[6],407
same,Rank (before),[7],2249
HFFWIQLKNILGENSF,P8_MAL Rank (after),[13],610
same,P8_MAL Rank (before),[14],2417
SEFIQKMILWMNTKVV,P8_MAL Rank (after),[11],689
same,P8_MAL Rank (before),[12],2438
YAFTGHLHRYLAQRGV,Population,[1],0.00488%
QLIQHWIELHQHQLHL,P8_MAL Rank (after),[13],630
same,P8_MAL Rank (before),[14],2348
KLFWEKFKFFLPTPSR,P8_MAL Rank (after),[8],201
same,P8_MAL Rank (before),[9],2708
PNLRTKVLSYLMRTTT,P3_MAL Rank (after),[8],270
same,P3_MAL Rank (before),[9],2674
DAEDMFWTQLREALDA,P8_MAL Rank (after),[13],602
same,P8_MAL Rank (before),[14],1987
